Test results reported in patent publication US20210292306A1, “NOVEL INDOLE DERIVATIVE AND ANTI-CANCER CONPOSITION CONTAINING SAME” (KOREA RESEARCH INSTITUTE OF BIOSCIENCE AND BIOTECHNOLOGY, priority 2016, published 2021).

Assays:
[1] = Stability in blood plasma after intravenous injection; type: in vivo; details: plasma concentration over time (FIG. 7)
Experimental: In order to examine the stability of the indole derivative of the present invention in vivo, the compound of Example 1 (WCI-1031) was injected intravenously and the plasma concentration was observed over time (FIG. 7).

NCIH-460 = test: Anti-proliferative activity in other cancer cell lines (MTT assay); type: cell-based; details: Homo sapiens, NCI-H460, 96 h, NCIH-460 (lung), 4 days, mean of three assays
Experimental: (§1) HeLa cells (ATCC, USA), which are a human cervical cancer cell line, were dispensed into a 96-well plate at 2×10^3 cells/well, and the cells were treated with DMSO or the indole derivatives of the present invention, and then allowed to grow for 4 days. And then, MTT (3-(4,5-Dimethylthiazol-2-yl)-2,5-diphenyltetrazolium bromide) reagent was added to the wells at 10 μl/well. After 2 hours, the absorbance was measured at “OD 450” and statistical values were obtained using the plizm6 program. The data represent mean values of the results of two repeated assays (Table 1).
(§2) Specifically, various cancer cell lines were cultured on a microtiter plate (1-3×10^3 cells/well), and the cells were treated with the indole derivative of the present invention and cultured for 4 days. Cytotoxicity was examined by the MTT assay by the same method as in Experimental Example 1-1, and the IC50 was obtained by the log-dose response curve. The data represent mean values of the results of three repeated assays (Table 2).

A 549 = test: as above; type: cell-based; details: Homo sapiens, A549, 96 h, A 549 (lung), 4 days, mean of three assays
Experimental: as §1, §2

Hep3B = test: as above; type: cell-based; details: Homo sapiens, 96 h, Hep3B (liver), 4 days, mean of three assays
Experimental: as §1, §2

Wehi 3 = test: as above; type: cell-based; details: 96 h, Wehi 3 (bone marrow), 4 days, mean of three assays
Experimental: as §1, §2

A172 = test: as above; type: cell-based; details: Homo sapiens, A 172, 96 h, A172 (brain), 4 days, mean of three assays
Experimental: as §1, §2

K562 = test: as above; type: cell-based; details: Homo sapiens, 96 h, K562 (bone marrow), 4 days, mean of three assays
Experimental: as §1, §2

U373MG = test: as above; type: cell-based; details: Homo sapiens, U373 MG, 96 h, U373MG (brain), 4 days, mean of three assays
Experimental: as §1, §2

MCF7 = test: as above; type: cell-based; details: Homo sapiens, 96 h, MCF7 (breast), 4 days, mean of three assays
Experimental: as §1, §2

PC3 = test: as above; type: cell-based; details: Homo sapiens, PC-3, 96 h, PC3 (prostate), 4 days, mean of three assays
Experimental: as §1, §2

A431 = test: as above; type: cell-based; details: Homo sapiens, A-431, 96 h, A431 (skin), 4 days, mean of three assays
Experimental: as §1, §2

HepG2 = test: as above; type: cell-based; details: Homo sapiens, 96 h, HepG2 (liver), 4 days, mean of three assays
Experimental: as §1, §2

HeLa = test: as above; type: cell-based; details: Homo sapiens, 96 h, HeLa (uterine cervix), 4 days, mean of three assays
Experimental: as §1, §2

NCIH-125 = test: as above; type: cell-based; details: Homo sapiens, NCI-H125, 96 h, NCIH-125 (lung), 4 days, mean of three assays
Experimental: as §1, §2

NCIH-1299 = test: as above; type: cell-based; details: Homo sapiens, NCI-H1299, 96 h, NCIH-1299 (lung), 4 days, mean of three assays
Experimental: as §1, §2

SNU 484 = test: as above; type: cell-based; details: 96 h, SNU 484 (stomach), 4 days, mean of three assays
Experimental: as §1, §2

K562/ADR = test: Anti-proliferative activity in cancer cells showing multiple drug resistance (MTT assay); type: cell-based
Experimental: HeLa cells (ATCC, USA), which are a human cervical cancer cell line, were dispensed into a 96-well plate at 2×10^3 cells/well, and the cells were treated with DMSO or the indole derivatives of the present invention, and then allowed to grow for 4 days. And then, MTT (3-(4,5-Dimethylthiazol-2-yl)-2,5-diphenyltetrazolium bromide) reagent was added to the wells at 10 μl/well. After 2 hours, the absorbance was measured at “OD 450” and statistical values were obtained using the plizm6 program. The data represent mean values of the results of two repeated assays (Table 1). Specifically, K562 and MCF7 (Bio Evaluation Center, Korea Research Institute of Bioscience and Biotechnology, Korea), and K562/ADR and MCF7/ADR (Bio Evaluation Center, Korea Research Institute of Bioscience and Biotechnology, Korea), which are multiple drug-resistant cell lines of the above mentioned cell lines, respectively, were cultured on a microtiter plate at 1-3×10^3 cells/well.

[2] = Maximum absorbable dose in human (Table 6); details: for MAD (maximum absorbable dose in human): SIWV 250 ml, SITT 270
[3] = tested on: human-derived skin cancer cell line (A431); test: Anti-cancer effect in human-derived skin cancer cell (A431) implantation nude mouse model; type: in vivo, BALB/C female nude mouse; details: for tumor growth inhibition: days 0-23, last day (day 23), vs solvent control; for tumor weight reduction: excised A431 tumors weighed
Experimental: The human cancer cell line A431 which was kept frozen in liquid nitrogen was thawed and cell culture was conducted. Cells were cultured in a CO2 incubator (Forma, USA) at 37° C. and 5% CO2 for an appropriate period of time. On the last day of culture, all cancer cells were collected and counted and the cell concentration was adjusted to 1×10^7 cells/ml using serum free media. The culture solution thus prepared was injected subcutaneously in the axillary region between the scapula and chest wall in an amount of 0.3 ml per BALB/C female nude mouse (5 weeks old, Nara Biotech) (3×10^6 cells/mouse). […] To examine the toxicity levels of the repeated intraperitoneal administration of WCI-1031 to A431 cancer cell implantation nude mice, general symptoms and weight changes of the animals were observed during the administration period. […] On day 23 after the start of the drug administration, blood was taken from the mice through ophthalmic veins 2 hours after the last administration, and the mice were sacrificed using CO2 gas. Then the mice were photographed and the tumors was isolated and weighed in a chemical balance. After taking photographs, each tumor was divided in half, and the resultant tumors were fixed to liquid nitrogen and formalin, respectively.

COC(=O)Cn1c(C)c(/C=N/NC(=O)c2cc3c(ccc4ccccc43)o2)c2ccccc21 [WCI-1031, methyl (E)-2-(2-methyl-3-((2-(naphtho[2,1-b]furan-2-carbonyl) hydrazono)methyl)-1H-indole-1-yl)acetate]
stability in the blood plasma [1]: excellent
IC50 (NCIH-460): 671 nM
IC50 (A 549): 495 nM
IC50 (Hep3B): 503 nM
IC50 (Wehi 3): 290 nM
IC50 (A172): 1120 nM
IC50 (K562): 549 nM
IC50 (U373MG): 262 nM
IC50 (MCF7): 1320 nM
IC50 (PC3): 549 nM
IC50 (A431): 186 nM
IC50 (HepG2): 2400 nM
IC50 (HeLa): 297 nM
IC50 (NCIH-125): 333 nM
IC50 (NCIH-1299): 376 nM
IC50 (SNU 484): 493 nM
IC50 (K562/ADR; Homo sapiens, 96 h, K562/ADR multiple drug-resistant line, 4 days, MTT, mean of three assays): 318 nM
Resistance factor (K562/ADR; ratio of IC50 K562/ADR to IC50 K562): 0.60
Ka (intestinal absorption rate constant) ([2]; pH 6.5): 0.03 min⁻¹
MAD (maximum absorbable dose in human) ([2]; pH 6.5): 1.8 mg
Ka (intestinal absorption rate constant) ([2]; pH 7.4): 0.03 min⁻¹
MAD (maximum absorbable dose in human) ([2]; pH 7.4): 0.8 mg
tumor growth inhibition ([3]; 10 mg/kg): 9.3%
tumor weight reduction ([3]; 10 mg/kg): 10.7%
tumor growth inhibition ([3]; 20 mg/kg, p<0.001): 37.2%
tumor weight reduction ([3]; 20 mg/kg, p<0.001): 38.0%
